Consider 19 molecules from ChEMBL document CHEMBL1833820, “Benzofurans from Styrax agrestis as acetylcholinesterase inhibitors: structure-activity relationships and molecular modeling studies” (J Nat Prod, 2011).

The source made the active and inactive calls. The rule behind the calls is not given here.

For experiment [1], the target named is T1, Acetylcholinesterase (Homo sapiens, UniProt P22303). Put plainly: Inhibition of human serum BChE using butyrylthiocholine iodide as substrate by spectrophotometric method.
T1 sequence (P22303 whole entry): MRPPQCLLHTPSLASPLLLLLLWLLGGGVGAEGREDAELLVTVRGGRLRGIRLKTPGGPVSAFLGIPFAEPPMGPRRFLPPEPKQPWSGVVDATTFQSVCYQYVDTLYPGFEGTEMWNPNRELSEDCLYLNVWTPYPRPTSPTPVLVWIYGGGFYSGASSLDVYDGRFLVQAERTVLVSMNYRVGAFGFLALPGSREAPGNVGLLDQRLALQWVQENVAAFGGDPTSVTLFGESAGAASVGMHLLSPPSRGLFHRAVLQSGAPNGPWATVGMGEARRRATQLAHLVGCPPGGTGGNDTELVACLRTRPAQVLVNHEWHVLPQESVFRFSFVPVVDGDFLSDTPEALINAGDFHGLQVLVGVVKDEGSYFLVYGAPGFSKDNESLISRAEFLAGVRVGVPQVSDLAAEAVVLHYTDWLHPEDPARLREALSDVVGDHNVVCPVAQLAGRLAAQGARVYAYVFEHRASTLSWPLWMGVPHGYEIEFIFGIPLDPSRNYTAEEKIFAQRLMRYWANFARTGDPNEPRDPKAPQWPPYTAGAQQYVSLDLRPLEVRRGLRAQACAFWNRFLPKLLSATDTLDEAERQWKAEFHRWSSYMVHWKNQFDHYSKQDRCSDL
Experiment [2] deals with Acetylcholinesterase (Electrophorus electricus) (UniProt O42275).
Chain of Acetylcholinesterase (Electrophorus electricus) (O42275 24-633 limits assumed): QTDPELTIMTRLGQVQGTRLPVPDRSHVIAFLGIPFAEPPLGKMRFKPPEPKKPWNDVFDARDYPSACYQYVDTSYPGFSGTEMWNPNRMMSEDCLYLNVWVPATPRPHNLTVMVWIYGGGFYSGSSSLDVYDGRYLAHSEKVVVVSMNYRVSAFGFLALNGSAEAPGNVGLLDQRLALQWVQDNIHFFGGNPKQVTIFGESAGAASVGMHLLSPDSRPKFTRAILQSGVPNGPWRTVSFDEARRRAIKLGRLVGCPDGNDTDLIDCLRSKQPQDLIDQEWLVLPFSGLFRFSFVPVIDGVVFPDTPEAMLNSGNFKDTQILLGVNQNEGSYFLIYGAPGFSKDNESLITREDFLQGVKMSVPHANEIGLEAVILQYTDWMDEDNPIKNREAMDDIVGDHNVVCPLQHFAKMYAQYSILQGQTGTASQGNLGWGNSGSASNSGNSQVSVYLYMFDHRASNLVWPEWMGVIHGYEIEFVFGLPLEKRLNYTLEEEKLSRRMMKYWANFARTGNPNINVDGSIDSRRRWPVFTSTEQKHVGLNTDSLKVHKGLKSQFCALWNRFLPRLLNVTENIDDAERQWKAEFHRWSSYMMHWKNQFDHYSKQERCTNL
Description: (§1) Inhibition of electric eel AChE using acetylthiocholine iodide as substrate by spectrophotometric method
Experiment [3] has as its target T1, Acetylcholinesterase.
Description: (§2) Inhibition of human recombinant AChE using acetylthiocholine iodide as substrate by spectrophotometric method
For experiment [4], the target named is Acetylcholinesterase (Electrophorus electricus, UniProt O42275).
Chain of Acetylcholinesterase (Electrophorus electricus, UniProt O42275) (O42275 whole entry): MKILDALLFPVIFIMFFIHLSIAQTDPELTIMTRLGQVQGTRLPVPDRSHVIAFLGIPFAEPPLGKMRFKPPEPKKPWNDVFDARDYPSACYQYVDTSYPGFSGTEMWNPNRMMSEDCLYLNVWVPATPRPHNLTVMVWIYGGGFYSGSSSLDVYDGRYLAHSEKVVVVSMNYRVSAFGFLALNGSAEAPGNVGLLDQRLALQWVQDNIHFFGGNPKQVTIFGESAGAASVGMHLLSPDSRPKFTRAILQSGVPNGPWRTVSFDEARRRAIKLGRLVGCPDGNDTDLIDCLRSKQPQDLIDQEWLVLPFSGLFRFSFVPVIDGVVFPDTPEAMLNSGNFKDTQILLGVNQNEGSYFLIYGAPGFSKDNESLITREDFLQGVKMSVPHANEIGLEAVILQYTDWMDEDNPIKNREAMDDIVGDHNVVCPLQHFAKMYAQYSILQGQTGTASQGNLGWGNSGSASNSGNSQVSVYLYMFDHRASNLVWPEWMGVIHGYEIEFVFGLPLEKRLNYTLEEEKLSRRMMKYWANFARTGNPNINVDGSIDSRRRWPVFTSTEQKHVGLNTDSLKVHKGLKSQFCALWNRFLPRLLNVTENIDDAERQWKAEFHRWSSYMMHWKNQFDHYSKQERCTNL
Description: as §1
The target in experiment [5] is T1, Acetylcholinesterase. The source holds these as a separate data set.
Description: as §2

As for `COc1cc(CCCOC(C)=O)cc2cc(-c3ccc4c(c3)OCO4)oc12`, the inhibition entry (at Acetylcholinesterase [1]; in experiment [2]; at Acetylcholinesterase [3]) was “inactive” each time.

Consider `O=CCCCCCCCC(=O)OCCCc1ccc2oc(-c3ccc4c(c3)OCO4)cc2c1`, for which the inhibition result at Acetylcholinesterase [1] and on Acetylcholinesterase [3] was “inactive” throughout.

Take `COc1cc(CCCOC(=O)C(C)C)cc2cc(-c3ccc4c(c3)OCO4)oc12`: at Acetylcholinesterase [1], the inhibition result is “inactive”.

The term IC50 denotes the concentration that gives 50% inhibition. A lower IC50 goes with inhibition by little substance. In the case of `CCCCC/C=C\C/C=C\CCCCCCCC(=O)OCCCc1cc(OC)c2oc(-c3ccc4c(c3)OCO4)cc2c1`, on Acetylcholinesterase [1], the inhibition result is “inactive”. For the same molecule, the half-inhibitory concentration (IC50) against Acetylcholinesterase [4] is 1400 nM; against Acetylcholinesterase [5] it was 1700 nM.

For `COc1cc(CCCOC(=O)NC(C)(C)C)cc2cc(-c3ccc4c(c3)OCO4)oc12`, the inhibition result on Acetylcholinesterase [1] is “inactive”.

Take `COc1cc(CCCO)cc2cc(-c3ccc4c(c3)OCO4)oc12`: the inhibition result (on Acetylcholinesterase [1]; in experiment [2]; at Acetylcholinesterase [3]) was “inactive” throughout.

In the case of `CC[C@H](C)C(=O)OCCCc1cc(OC)c2oc(-c3ccc4c(c3)OCO4)cc2c1`, the inhibition result on Acetylcholinesterase [1] was “inactive”. In addition, the values for the IC50 at Acetylcholinesterase [4] and at Acetylcholinesterase [5] were 4800 nM and 5900 nM, respectively.

As for `CCCCC/C=C\C/C=C\CCCCCCCC(=O)OCCCc1ccc2oc(-c3ccc4c(c3)OCO4)cc2c1`, on Acetylcholinesterase [1], the inhibition entry is “inactive”. The IC50 against Acetylcholinesterase [4] came to 2000 nM; at Acetylcholinesterase [5], 2700 nM.

With `CCCCCCCC/C=C\CCCCCCCC(=O)OCCCc1cc(OC)c2oc(-c3ccc4c(c3)OCO4)cc2c1` [EGONOL OLEATE], the inhibition entry on Acetylcholinesterase [1] was “inactive”. For the same molecule, the IC50 on Acetylcholinesterase [4] amounted to 1400 nM; against Acetylcholinesterase [5], 1800 nM.

In the case of `CC(=O)OCCCc1ccc2oc(-c3ccc4c(c3)OCO4)cc2c1`, the inhibition result (at Acetylcholinesterase [1]; in experiment [2]; on Acetylcholinesterase [3]) was “inactive” throughout.

With `OCCCc1ccc2oc(-c3ccc4c(c3)OCO4)cc2c1`, the inhibition entry (at Acetylcholinesterase [1]; in experiment [2]; on Acetylcholinesterase [3]) was “inactive” in each case.

Turning to `CCCC(=O)OCCCc1cc(OC)c2oc(-c3ccc4c(c3)OCO4)cc2c1`, at Acetylcholinesterase [1], the inhibition entry was “inactive”.

As to `COc1cc(CCCOC(=O)CCCCCCCC=O)cc2cc(-c3ccc4c(c3)OCO4)oc12`, the inhibition result on Acetylcholinesterase [1] and on Acetylcholinesterase [3] was “inactive” each time.

On to `CC[C@H](C)C(=O)OCCCc1ccc2oc(-c3ccc4c(c3)OCO4)cc2c1`, for which the inhibition entry on Acetylcholinesterase [1] is “inactive”. For the same molecule, the IC50 against Acetylcholinesterase [4] was found to be 5500 nM; on Acetylcholinesterase [5], 6100 nM.

Consider `COc1cc(CCC(=O)O)cc2cc(-c3ccc4c(c3)OCO4)oc12`, for which the inhibition entry (on Acetylcholinesterase [1]; in experiment [2]; on Acetylcholinesterase [3]) was “inactive” each time.

Consider `CCCCCCCC/C=C\CCCCCCCC(=O)OCCCc1ccc2oc(-c3ccc4c(c3)OCO4)cc2c1`, for which, on Acetylcholinesterase [1], the inhibition result is “inactive”. The half-maximal inhibitory concentration (IC50) against Acetylcholinesterase [4] came out at 2200 nM; against Acetylcholinesterase [5] it was 3100 nM.

As to `COc1cc(CCC=O)cc2cc(-c3ccc4c(c3)OCO4)oc12`, the inhibition entry (on Acetylcholinesterase [1]; in experiment [2]; at Acetylcholinesterase [3]) was “inactive” throughout.

In the case of `CCC(=O)OCCCc1cc(OC)c2oc(-c3ccc4c(c3)OCO4)cc2c1`, the inhibition result (on Acetylcholinesterase [1]; in experiment [2]; at Acetylcholinesterase [3]) was “inactive” throughout.

`COc1cc(CCCOC(=O)Nc2ccccc2)cc2cc(-c3ccc4c(c3)OCO4)oc12`: at Acetylcholinesterase [1], the inhibition entry was “inactive”. In addition, the IC50 came out at 3300 nM against Acetylcholinesterase [4] and 4500 nM on Acetylcholinesterase [5].
